Measurements: patent publication US20050209278A1, “Piperidinyl- and piperazinyl-sulfonylmethyl hydroxamic acids and their use as protease inhibitors” (priority 2002, published 2005)

Tests used:
MMP-13 = target: T1, MMP-13 (Homo sapiens, UniProt P45452); assay: In vitro MMP inhibition, Ki determination (fluorogenic substrate II); assay type: biochemical; settings: value not in parenthesis; read-out: MMP-13 Ki
T1 construct: made in house; host or cells: baculovirus / insect cells
How it was run: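 Ki determined with human recombinant MMP-13, baculovirus-expressed as proenzyme and activated with APMA. Fluorogenic MCA/Dpa substrate II at 4 μM (at or below Km) with low enzyme in Tris buffer pH 7.5 with CaCl2. Incubation was 1 h at room temperature, with fluorescence read at 330/420 nm.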

MMP-2 = target: T2, MMP-2 (Homo sapiens, UniProt P08253); assay: as above; assay type: biochemical; settings: value not in parenthesis; read-out: MMP-2 Ki
T2 construct: made in house; host or cells: MMP-2-transfected p2AHT2 cells
T2 sequence (P08253 110-660): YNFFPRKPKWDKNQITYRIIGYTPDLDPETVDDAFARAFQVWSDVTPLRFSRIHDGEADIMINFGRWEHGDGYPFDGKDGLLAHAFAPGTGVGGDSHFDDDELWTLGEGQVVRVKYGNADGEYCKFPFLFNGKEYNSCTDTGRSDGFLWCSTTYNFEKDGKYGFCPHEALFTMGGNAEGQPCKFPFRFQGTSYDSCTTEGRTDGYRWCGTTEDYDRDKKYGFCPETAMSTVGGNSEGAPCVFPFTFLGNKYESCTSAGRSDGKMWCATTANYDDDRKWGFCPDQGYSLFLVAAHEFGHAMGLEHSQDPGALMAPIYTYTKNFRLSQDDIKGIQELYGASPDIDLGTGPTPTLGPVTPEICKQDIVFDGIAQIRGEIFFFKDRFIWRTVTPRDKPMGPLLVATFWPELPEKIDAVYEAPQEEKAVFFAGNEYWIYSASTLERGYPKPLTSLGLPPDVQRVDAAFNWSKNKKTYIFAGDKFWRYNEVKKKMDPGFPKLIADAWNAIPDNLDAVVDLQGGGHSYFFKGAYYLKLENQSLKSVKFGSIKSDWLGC

Structure (SMILES) | Ki (MMP-13) | Ki (MMP-2)
CCCCCCCCCc1cnc(N2CCN(S(=O)(=O)C3(C(=O)NO)CCOCC3)CC2)nc1 [Example 111] | 2.58 nM | 49.6 nM
CC(C)(C)N1CCC(C(=O)NO)(S(=O)(=O)N2CCN(c3ccc(OCCCC(F)(F)F)cc3F)CC2)CC1 [Example 116] | 1.21 nM | 4.31 nM
CCCCOc1ccc(N2CCN(S(=O)(=O)C3(C(=O)NO)CCN(C(=O)NCCOC)CC3)CC2)cc1 [Example 118] | 0.43 nM | 0.75 nM
CCCCOc1ccc(N2CCN(S(=O)(=O)C3(C(=O)NO)CCN(c4ccc(O)cc4)CC3)CC2)cc1 [Example 121] | 0.68 nM | 2.15 nM
CCCCOc1ccc(N2CCN(S(=O)(=O)C3(C(=O)NO)CCN4CCCC4C3)CC2)cc1F (centres unmarked) [Example 126] | 7.06 nM | 8.24 nM
CCCCOc1ccc(N2CCN(S(=O)(=O)C3(C(=O)NO)CCN(C(=O)c4cc5ccccc5o4)CC3)CC2)cc1 [Example 127] | 6.18 nM | 6.02 nM
CC(C)CCOc1ccc(N2CCN(S(=O)(=O)C3(C(=O)NO)CCN(C4CC4)CC3)CC2)cc1 [Example 128] | 0.211 nM | 0.785 nM
O=C1c2ccccc2C(=O)N1CCCCc1ccc(N2CCN(S(=O)(=O)C3(C(=O)NO)CCOCC3)CC2)nc1 [Example 132] | 0.395 nM | 1.2 nM
CC(C)CCc1ccc(N2CCN(S(=O)(=O)C3(C(=O)NO)CCOCC3)CC2)nc1 [Example 133] | 0.227 nM | 0.251 nM
CCCCOc1ccc(N2CCN(S(=O)(=O)C3(C(=O)NO)CCN(c4cc(C)ccn4)CC3)CC2)cc1 [Example 139] | 2.03 nM | 2.18 nM
CCCCOc1ccc(N2CCN(S(=O)(=O)C3(C(=O)NO)CCN(C(=O)OCCOC)CC3)CC2)cc1 [Example 141] | 0.151 nM | 0.266 nM
CCCCOc1ccc(N2CCN(S(=O)(=O)C3(C(=O)NO)CCN(c4ccc(OC)nc4)CC3)CC2)cc1 [Example 142] | 0.505 nM | 0.978 nM
CCCCOc1ccc(N2CCN(S(=O)(=O)C3(C(=O)NO)CCN(C(=O)c4cc5ccccc5s4)CC3)CC2)cc1 [Example 143] | 7.05 nM | 8.97 nM
CCCCc1ccc(N2CCN(S(=O)(=O)C3(C(=O)NO)CCN(c4ccc(C)cc4)CC3)CC2)cc1 [Example 146] | 9.38 nM | 6.41 nM
CCCCCc1ccc(N2CCN(S(=O)(=O)C3(C(=O)NO)CCN(c4ccc(C)cc4)CC3)CC2)cc1 [Example 147] | 7.35 nM | 20.5 nM
COCCN1CCC(C(=O)NO)(S(=O)(=O)N2CCN(c3ccc(OCCC(C)C)cc3)CC2)CC1 [Example 148] | 0.24 nM | 1.19 nM
CCCCOc1ccc(N2CCN(S(=O)(=O)C3(C(=O)NO)CCN(c4ccccn4)CC3)CC2)cc1 [Example 149] | 1.31 nM | 1.89 nM
CCCCOc1ccc(N2CCN(S(=O)(=O)C3(C(=O)NO)CCN(c4cccnc4)CC3)CC2)cc1 [Example 154] | 0.561 nM | 1.07 nM
CCCCOc1ccc(N2CCN(S(=O)(=O)C3(C(=O)NO)CCN(c4ncc(CC)cn4)CC3)CC2)cc1 [Example 155] | 3.36 nM | 1.83 nM

Next, values leading:

Ki (MMP-13) | Ki (MMP-2) | Structure (SMILES)
472 nM | 477 nM | COc1ccc(N2CCN(S(=O)(=O)C3(C(=O)NO)CCOCC3)CC2)nc1 [Example 109]
3.23 nM | 61.7 nM | CCCCCCCCCc1cnc(N2CCN(S(=O)(=O)C3(C(=O)NO)CCOCC3)CC2)nc1 [Example 110]
0.27 nM | 0.69 nM | O=C(NO)C1(S(=O)(=O)N2CCN(c3ccc(OCCCC(F)(F)F)cc3)CC2)CCN(c2cnccn2)CC1 [Example 112]
0.25 nM | 0.4 nM | CCCCOc1ccc(N2CCN(S(=O)(=O)C3(C(=O)NO)CCN(C(=O)OCCF)CC3)CC2)cc1 [Example 113]
0.748 nM | 0.367 nM | CCc1ccc(N2CCN(S(=O)(=O)C3(C(=O)NO)CCOCC3)CC2)nc1 [Example 114]
1.17 nM | 1.48 nM | CCCCOc1ccc(N2CCN(S(=O)(=O)C3(C(=O)NO)CCN(C(=O)OCC(F)(F)F)CC3)CC2)cc1 [Example 115]
0.79 nM | 1.19 nM | COCCN1CCC(C(=O)NO)(S(=O)(=O)N2CCN(c3ccc(OCC(F)(F)F)cc3)CC2)CC1 [Example 119]
0.03 nM | 0.34 nM | O=C(c1cccnc1)N1CCC(C(=O)NO)(S(=O)(=O)N2CCN(c3ccc(OCCCC(F)(F)F)cc3)CC2)CC1 [Example 122]
0.74 nM | 1.28 nM | CCCCOc1ccc(N2CCN(S(=O)(=O)C3(C(=O)NO)CCN(C(=S)N(C)C)CC3)CC2)cc1 [Example 123]
0.121 nM | 0.193 nM | CCCCOc1ccc(N2CCN(S(=O)(=O)C3(C(=O)NO)CCN(C(=O)N4CCOCC4)CC3)CC2)cc1 [Example 124]
1.67 nM | 1.8 nM | CCCCOc1ccc(N2CCN(S(=O)(=O)C3(C(=O)NO)CCN(c4ccc(C)cn4)CC3)CC2)cc1 [Example 125]
0.302 nM | 0.508 nM | CCCCOc1ccc(N2CCN(S(=O)(=O)C3(C(=O)NO)CCN(c4ccc(OCCOC)nn4)CC3)CC2)cc1 [Example 129]
0.621 nM | 1.39 nM | CCCCOc1ccc(N2CCN(S(=O)(=O)C3(C(=O)NO)CCN(c4ccc(C)nc4)CC3)CC2)cc1 [Example 131]
0.423 nM | 0.142 nM | CCCc1ccc(N2CCN(S(=O)(=O)C3(C(=O)NO)CCOCC3)CC2)nc1 [Example 136]
1.15 nM | 0.469 nM | Cc1ccc(N2CCN(S(=O)(=O)C3(C(=O)NO)CCOCC3)CC2)nc1 [Example 138]
0.446 nM | 0.672 nM | CCCCOc1ccc(N2CCN(S(=O)(=O)C3(C(=O)NO)CCN(c4cnccn4)CC3)CC2)cc1 [Example 140]
0.306 nM | 0.69 nM | COCCN1CCC(C(=O)NO)(S(=O)(=O)N2CCN(c3ccc(OCC(F)(F)C(F)(F)F)cc3)CC2)CC1 [Example 144]
0.347 nM | 0.695 nM | CCCCOc1ccc(N2CCN(S(=O)(=O)C3(C(=O)NO)CCOCC3)CC2)cc1 [Example 145]
11.2 nM | 4.25 nM | CCCCOc1ccc(N2CCN(S(=O)(=O)C3(C(=O)NO)CCN(c4nc5ccccc5o4)CC3)CC2)cc1 [Example 150]
5.74 nM | 0.871 nM | O=C(NO)C1(S(=O)(=O)N2CCN(c3ccc(SC(F)(F)F)cc3)CC2)CCN(Cc2ccccc2)CC1 [Example 152]
0.099 nM | 0.502 nM | O=C(NO)C1(S(=O)(=O)N2CCN(c3ccc(OCCCC(F)(F)F)cc3)CC2)CCN(C2CC2)CC1 [Example 153]
